Laboratory results from ChEMBL document CHEMBL3297661, “1-Substituted-5-[(3,5-dinitrobenzyl)sulfanyl]-1H-tetrazoles and their isosteric analogs: A new class of selective antitubercular agents active against drug-susceptible and multidrug-resistant mycobacteria” (Eur J Med Chem, 2014).
Values after ≈ are worked out from the molar mass of the structure shown.

How the values were obtained:
[1] = Cytotoxicity against MDCK2 cells assessed as reduction in cell viability after 48 hrs by MTT assay; assay type: cell-based; conditions: Canis lupus familiaris, MDCK-II
[2] = Cytotoxicity against MDCK2 cells assessed as cell viability at 30 uM after 48 hrs by MTT assay; assay type: cell-based, Canis lupus familiaris, MDCK-II; conditions: dog, read-out: Activity
Enterococcus faecalis [3] = experiment: Antibacterial activity against Enterococcus faecalis J 14365/08 after 48 hrs by broth microdilution method; assay type: functional; conditions: J 14365/08, 48 h
Candida albicans [4] = experiment: Antifungal activity against Candida albicans ATCC 44859 after 24 hrs by broth microdilution method; assay type: functional; conditions: ATCC 44859, 24 h
Staphylococcus aureus [5] = experiment: Antibacterial activity against methicillin-resistant Staphylococcus aureus H 5996/08 after 48 hrs by broth microdilution method; assay type: functional; conditions: H 5996/08, 48 h
Mycobacterium kansasii [6] = experiment: Antimycobacterial activity against Mycobacterium kansasii CNCTC My 235/80 after 14 days by micromethod; assay type: functional; conditions: CNCTC My 235/80, 336 h
Aspergillus fumigatus [7] = experiment: Antifungal activity against Aspergillus fumigatus 231 after 48 hrs by broth microdilution method; assay type: functional, organism-based; conditions: Aspergillus fumigatus, 231, 48 h
Mycobacterium kansasii [8] = experiment: Antimycobacterial activity against Mycobacterium kansasii CNCTC My 235/80 after 21 days by micromethod; assay type: functional; conditions: CNCTC My 235/80, 504 h
Klebsiella pneumoniae [9] = experiment: Antibacterial activity against Klebsiella pneumoniae D 11750/08 after 48 hrs by broth microdilution method; assay type: functional; conditions: D 11750/08, 48 h
Candida tropicalis [10] = experiment: Antifungal activity against Candida tropicalis 156 after 24 hrs by broth microdilution method; assay type: functional; conditions: Candida tropicalis, 156, 24 h
Staphylococcus aureus [11] = experiment: Antibacterial activity against Staphylococcus aureus ATCC 6538 after 24 hrs by broth microdilution method; assay type: functional; conditions: ATCC 6538, 24 h
Mycobacterium kansasii [12] = experiment: Antimycobacterial activity against Mycobacterium kansasii CNCTC My 235/80 after 7 days by micromethod; assay type: functional; conditions: CNCTC My 235/80, 168 h
[13] = test system: Trichophyton mentagrophytes; experiment: Antifungal activity against Trichophyton mentagrophytes 445 after 120 hrs by broth microdilution method; assay type: functional, organism-based; conditions: Trichophyton mentagrophytes, 445, 120 h
[14] = test system: Trichophyton mentagrophytes; experiment: Antifungal activity against Trichophyton mentagrophytes 445 after 72 hrs by broth microdilution method; assay type: functional, organism-based; conditions: Trichophyton mentagrophytes, 445, 72 h
Candida albicans [15] = experiment: Antifungal activity against Candida albicans ATCC 44859 after 48 hrs by broth microdilution method; assay type: functional; conditions: ATCC 44859, 48 h
Mycobacterium avium [16] = experiment: Antimycobacterial activity against Mycobacterium avium CNCTC My 330/88 after 14 days by micromethod; assay type: functional; conditions: CNCTC My 330/88, 336 h
Aspergillus fumigatus [17] = experiment: Antifungal activity against Aspergillus fumigatus 231 after 24 hrs by broth microdilution method; assay type: functional, organism-based; conditions: Aspergillus fumigatus, 231, 24 h
[18] = Cytotoxicity against human HeLa cells assessed as cell viability at 30 uM after 48 hrs by MTT assay; assay type: cell-based; conditions: read-out: Activity
HepG2 = experiment: Cytotoxicity against human HepG2 cells assessed as reduction in cell viability after 48 hrs by MTT assay; assay type: cell-based; conditions: HepG2, 48 h
Enterococcus faecalis [19] = experiment: Antibacterial activity against Enterococcus faecalis J 14365/08 after 24 hrs by broth microdilution method; assay type: functional; conditions: J 14365/08, 24 h
[20] = test system: Mycobacterium tuberculosis; experiment: Antimycobacterial activity against Mycobacterium tuberculosis CNCTC My 331/88 after 21 days by micromethod; assay type: functional; conditions: CNCTC My 331/88, 504 h
Mycobacterium avium [21] = experiment: Antimycobacterial activity against Mycobacterium avium CNCTC My 330/88 after 21 days by micromethod; assay type: functional; conditions: CNCTC My 330/88, 504 h
[22] = test system: Staphylococcus epidermidis; experiment: Antibacterial activity against Staphylococcus epidermidis H 6966/08 after 48 hrs by broth microdilution method; assay type: functional; conditions: H 6966/08, 48 h
Mycobacterium kansasii [23] = experiment: Antimycobacterial activity against Mycobacterium kansasii 6509/96 after 7 days by micromethod; assay type: functional; conditions: 6509/96, 168 h
Mycobacterium kansasii [24] = experiment: Antimycobacterial activity against Mycobacterium kansasii 6509/96 after 21 days by micromethod; assay type: functional; conditions: 6509/96, 504 h
[25] = Cytotoxicity against human HuH7 cells assessed as reduction in cell viability after 48 hrs by MTT assay; assay type: cell-based; conditions: Huh-7, 48 h
Lichtheimia corymbifera [26] = experiment: Antifungal activity against Absidia corymbifera 272 after 24 hrs by broth microdilution method; assay type: functional, organism-based; conditions: Lichtheimia corymbifera, 272, 24 h
Pichia kudriavzevii [27] = experiment: Antifungal activity against Candida krusei E28 after 48 hrs by broth microdilution method; assay type: functional; conditions: E28, 48 h
Lichtheimia corymbifera [28] = experiment: Antifungal activity against Absidia corymbifera 272 after 48 hrs by broth microdilution method; assay type: functional, organism-based; conditions: Lichtheimia corymbifera, 272, 48 h
Escherichia coli [29] = experiment: Antibacterial activity against Escherichia coli ATCC 8739 after 24 hrs by broth microdilution method; assay type: functional; conditions: ATCC 8739, ATCC 8739, 24 h
Staphylococcus aureus [30] = experiment: Antibacterial activity against Staphylococcus aureus ATCC 6538 after 48 hrs by broth microdilution method; assay type: functional; conditions: ATCC 6538, 48 h
Staphylococcus aureus [31] = experiment: Antibacterial activity against methicillin-resistant Staphylococcus aureus H 5996/08 after 24 hrs by broth microdilution method; assay type: functional; conditions: H 5996/08, 24 h
Klebsiella pneumoniae [32] = experiment: Antibacterial activity against extended spectrum beta-lactamase producing Klebsiella pneumoniae J 14368/08 after 48 hrs by broth microdilution method; assay type: functional; conditions: J 14368/08, 48 h
HeLa = experiment: Cytotoxicity against human HeLa cells assessed as reduction in cell viability after 48 hrs by MTT assay; assay type: cell-based
Pseudomonas aeruginosa [33] = experiment: Antibacterial activity against Pseudomonas aeruginosa ATCC 9027 after 24 hrs by broth microdilution method; assay type: functional; conditions: ATCC 9027, 24 h
Candida tropicalis [34] = experiment: Antifungal activity against Candida tropicalis 156 after 48 hrs by broth microdilution method; assay type: functional; conditions: Candida tropicalis, 156, 48 h
Klebsiella pneumoniae [35] = experiment: Antibacterial activity against extended spectrum beta-lactamase producing Klebsiella pneumoniae J 14368/08 after 24 hrs by broth microdilution method; assay type: functional; conditions: J 14368/08, 24 h
Trichosporon asahii [36] = experiment: Antifungal activity against Trichosporon asahii 1188 after 48 hrs by broth microdilution method; assay type: functional; conditions: Trichosporon asahii, 1188, 48 h
Mycobacterium kansasii [37] = experiment: Antimycobacterial activity against Mycobacterium kansasii 6509/96 after 14 days by micromethod; assay type: functional; conditions: 6509/96, 336 h
[38] = Cytotoxicity against human HuH7 cells assessed as cell viability at 30 uM after 48 hrs by MTT assay; assay type: cell-based, Huh-7; conditions: read-out: Activity
Escherichia coli [39] = experiment: Antibacterial activity against Escherichia coli ATCC 8739 after 48 hrs by broth microdilution method; assay type: functional; conditions: ATCC 8739, ATCC 8739, 48 h
[40] = test system: Mycobacterium tuberculosis; experiment: Antimycobacterial activity against Mycobacterium tuberculosis CNCTC My 331/88 after 14 days by micromethod; assay type: functional; conditions: CNCTC My 331/88, 336 h
[41] = test system: Staphylococcus epidermidis; experiment: Antibacterial activity against Staphylococcus epidermidis H 6966/08 after 24 hrs by broth microdilution method; assay type: functional; conditions: H 6966/08, 24 h
Klebsiella pneumoniae [42] = experiment: Antibacterial activity against Klebsiella pneumoniae D 11750/08 after 24 hrs by broth microdilution method; assay type: functional; conditions: D 11750/08, 24 h
Trichosporon asahii [43] = experiment: Antifungal activity against Trichosporon asahii 1188 after 24 hrs by broth microdilution method; assay type: functional; conditions: Trichosporon asahii, 1188, 24 h
[44] = Cytotoxicity against human HepG2 cells assessed as cell viability at 30 uM after 48 hrs by MTT assay; assay type: cell-based; conditions: read-out: Activity
Nakaseomyces glabratus [45] = experiment: Antifungal activity against Candida glabrata 20/I after 24 hrs by broth microdilution method; assay type: functional
Pseudomonas aeruginosa [46] = experiment: Antibacterial activity against Pseudomonas aeruginosa ATCC 9027 after 48 hrs by broth microdilution method; assay type: functional; conditions: ATCC 9027, 48 h
Nakaseomyces glabratus [47] = experiment: Antifungal activity against Candida glabrata 20/I after 48 hrs by broth microdilution method; assay type: functional
Pichia kudriavzevii [48] = experiment: Antifungal activity against Candida krusei E28 after 24 hrs by broth microdilution method; assay type: functional; conditions: E28, 24 h
[49] = test system: Mycobacterium tuberculosis; experiment: Antimycobacterial activity against Mycobacterium tuberculosis H37Rv; assay type: functional

O=[N+]([O-])c1cc(C[Se]c2nnnn2Cc2ccccc2)cc([N+](=O)[O-])c1
IC50 [1]: 22 µM | viability at 48 h, 30 µM [2]: 41% | IC95 (Enterococcus faecalis [3]): > 500 µM | IC80 (Candida albicans [4]): > 500 µM | IC95 (Staphylococcus aureus [5]): > 500 µM | MIC (Mycobacterium kansasii [6]): 4 µM (≈ 1.68 µg/mL) | IC50 (Aspergillus fumigatus [7]): > 500 µM | MIC (Mycobacterium kansasii [8]): 4 µM (≈ 1.68 µg/mL) | IC95 (Klebsiella pneumoniae [9]): > 500 µM | IC80 (Candida tropicalis [10]): > 500 µM | IC95 (Staphylococcus aureus [11]): > 500 µM | MIC (Mycobacterium kansasii [12]): 2 µM (≈ 0.839 µg/mL) | IC50 [13]: > 500 µM | IC50 [14]: > 500 µM | IC80 (Candida albicans [15]): > 500 µM | MIC (Mycobacterium avium [16]): 32 µM (≈ 13.4 µg/mL) | IC50 (Aspergillus fumigatus [17]): > 500 µM | viability at 48 h, 30 µM [18]: 54% | IC50 (HepG2): 16.5 µM | IC95 (Enterococcus faecalis [19]): > 500 µM | MIC [20]: 2 µM (≈ 0.839 µg/mL) | MIC (Mycobacterium avium [21]): 32 µM (≈ 13.4 µg/mL) | IC95 [22]: > 500 µM | MIC (Mycobacterium kansasii [23]): 4 µM (≈ 1.68 µg/mL) | MIC (Mycobacterium kansasii [24]): 8 µM (≈ 3.35 µg/mL) | IC50 [25]: > 30 µM | IC50 (Lichtheimia corymbifera [26]): > 500 µM | IC80 (Pichia kudriavzevii [27]): > 500 µM | IC50 (Lichtheimia corymbifera [28]): > 500 µM | IC95 (Escherichia coli [29]): > 500 µM | IC95 (Staphylococcus aureus [30]): > 500 µM | IC95 (Staphylococcus aureus [31]): > 500 µM | IC95 (Klebsiella pneumoniae [32]): > 500 µM | IC50 (HeLa): > 30 µM | IC95 (Pseudomonas aeruginosa [33]): > 500 µM | IC80 (Candida tropicalis [34]): > 500 µM | IC95 (Klebsiella pneumoniae [35]): > 500 µM | IC80 (Trichosporon asahii [36]): > 500 µM | MIC (Mycobacterium kansasii [37]): 8 µM (≈ 3.35 µg/mL) | viability at 48 h, 30 µM [38]: 70% | IC95 (Escherichia coli [39]): > 500 µM | MIC [40]: 1 µM (≈ 0.419 µg/mL) | IC95 [41]: > 500 µM | IC95 (Klebsiella pneumoniae [42]): > 500 µM | IC80 (Trichosporon asahii [43]): > 500 µM | viability at 48 h, 30 µM [44]: 33% | IC80 (Nakaseomyces glabratus [45]): > 500 µM | IC95 (Pseudomonas aeruginosa [46]): > 500 µM | IC80 (Nakaseomyces glabratus [47]): > 500 µM | IC80 (Pichia kudriavzevii [48]): > 500 µM

C[C@]1(COc2ccc(N3CCC(Oc4ccc(OC(F)(F)F)cc4)CC3)cc2)Cn2cc([N+](=O)[O-])nc2O1 [DELAMANID]
MIC [49]: 0.02 µM (≈ 0.0107 µg/mL)

C[C@H]1COC2(CCN(c3nc(=O)c4cc(C(F)(F)F)cc([N+](=O)[O-])c4s3)CC2)O1 [BTZ-043]
MIC [49]: 0.0023 µM (≈ 0.000992 µg/mL)
